Source: ChEMBL document CHEMBL5346903, “Discovery of novel and bioavailable histone deacetylases and cyclin-dependent kinases dual inhibitor to impair the stemness of leukemia cells” (Eur J Med Chem, 2023)
Blank lines part the entries; values can stand above or below the compound they belong to.

Columns and labels:
HL-60 [1] = assay: Induction of apoptosis in human HL-60 cells assessed as viable cells at 1.2 uM incubated for 48 hrs by annexin V-FITC/PI satining based flow cytometry (reference value: 94.7 %); format: functional; settings: read-out: Activity
HL-60 [2] = assay: Induction of apoptosis in human HL-60 cells assessed as viable cells at 5 uM incubated for 48 hrs by annexin V-FITC/PI satining based flow cytometry (reference value: 94.7 %); format: functional; settings: read-out: Activity
U-937 [3] = assay: Induction of differentiation in human U-937 cells assessed as increase in CD11b positive cells at 2.5 uM incubated for 48 hrs by FITC staining based flow cytometry (reference value: […] %); format: functional
HL-60 [4] = assay: Induction of apoptosis in human HL-60 cells assessed as necrotic cells at 0.6 uM incubated for 48 hrs by annexin V-FITC/PI satining based flow cytometry (reference value: 0.04 %); format: functional
U-937 [5] = assay: Induction of apoptosis in human U-937 cells assessed as late apoptotic cells at 1.2 uM incubated for 48 hrs by annexin V-FITC/PI satining based flow cytometry (reference value: 4.23 %); format: functional
U-937 [6] = assay: Induction of differentiation in human U-937 cells assessed as increase in CD11b positive cells at 5 uM incubated for 48 hrs by FITC staining based flow cytometry (reference value: […] %); format: functional
HL-60 [7] = assay: Induction of apoptosis in human HL-60 cells assessed as necrotic cells at 1.2 uM incubated for 48 hrs by annexin V-FITC/PI satining based flow cytometry (reference value: 0.04 %); format: functional
U-937 [8] = assay: Induction of apoptosis in human U-937 cells assessed as early apoptotic cells at 1.2 uM incubated for 48 hrs by annexin V-FITC/PI satining based flow cytometry (reference value: 1.93 %); format: functional
Histone deacetylase 5 = Histone deacetylase 5 (Homo sapiens, UniProt Q9UQL6); assay: Inhibition of recombinant human HDAC5 using HDAC substrate incubated for 30 mins by fluorescence based assay
Sequence of Histone deacetylase 5 (Q9UQL6 whole entry): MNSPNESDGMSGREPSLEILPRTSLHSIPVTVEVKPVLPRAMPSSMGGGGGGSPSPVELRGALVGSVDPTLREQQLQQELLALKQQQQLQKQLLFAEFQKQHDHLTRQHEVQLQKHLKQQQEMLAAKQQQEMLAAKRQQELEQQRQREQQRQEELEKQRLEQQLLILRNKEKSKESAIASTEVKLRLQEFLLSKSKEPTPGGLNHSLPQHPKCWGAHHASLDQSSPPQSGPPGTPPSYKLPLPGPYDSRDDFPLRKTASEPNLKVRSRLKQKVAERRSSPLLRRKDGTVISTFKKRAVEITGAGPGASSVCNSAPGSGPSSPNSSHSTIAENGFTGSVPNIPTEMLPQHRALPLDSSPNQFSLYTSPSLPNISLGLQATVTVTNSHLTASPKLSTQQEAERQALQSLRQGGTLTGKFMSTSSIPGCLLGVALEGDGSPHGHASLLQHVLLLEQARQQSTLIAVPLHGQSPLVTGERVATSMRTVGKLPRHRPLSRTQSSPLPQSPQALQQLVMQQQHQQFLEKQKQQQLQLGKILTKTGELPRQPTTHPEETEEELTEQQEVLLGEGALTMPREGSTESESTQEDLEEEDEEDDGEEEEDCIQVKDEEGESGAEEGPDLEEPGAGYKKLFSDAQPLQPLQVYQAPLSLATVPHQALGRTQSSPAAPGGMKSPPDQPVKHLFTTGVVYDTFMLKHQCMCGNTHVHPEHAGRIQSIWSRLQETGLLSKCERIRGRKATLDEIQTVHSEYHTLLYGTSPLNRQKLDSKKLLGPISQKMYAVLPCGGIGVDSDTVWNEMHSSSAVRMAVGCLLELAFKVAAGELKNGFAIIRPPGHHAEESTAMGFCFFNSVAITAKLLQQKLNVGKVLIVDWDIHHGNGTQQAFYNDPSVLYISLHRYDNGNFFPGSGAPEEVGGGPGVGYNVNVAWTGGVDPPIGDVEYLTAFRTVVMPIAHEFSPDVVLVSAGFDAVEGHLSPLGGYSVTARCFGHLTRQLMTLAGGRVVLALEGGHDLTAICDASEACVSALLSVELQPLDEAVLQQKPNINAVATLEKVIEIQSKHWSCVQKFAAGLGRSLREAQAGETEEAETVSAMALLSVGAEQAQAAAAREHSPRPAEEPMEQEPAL

HL-60 [9] = assay: Induction of apoptosis in human HL-60 cells assessed as late apoptotic cells at 0.5 uM incubated for 48 hrs by annexin V-FITC/PI satining based flow cytometry (reference value: 1.33 %); format: functional
[10] = target: Cyclin-dependent kinase 13/Cyclin-K (Homo sapiens) (UniProt Q14004+O75909); assay: Inhibition of CDK13/cyclinK (unknown origin) at 100 nM preincubated for 20 mins followed by [gamma-33P]ATP addition measured after 120 mins in presence of ATP by Hot-SpotSM kinase assay relative to control; format: protein-complex assay; settings: time 140.0 min
Sequence of Cyclin-dependent kinase 13/Cyclin-K (Homo sapiens) (O75909 whole entry, looked up): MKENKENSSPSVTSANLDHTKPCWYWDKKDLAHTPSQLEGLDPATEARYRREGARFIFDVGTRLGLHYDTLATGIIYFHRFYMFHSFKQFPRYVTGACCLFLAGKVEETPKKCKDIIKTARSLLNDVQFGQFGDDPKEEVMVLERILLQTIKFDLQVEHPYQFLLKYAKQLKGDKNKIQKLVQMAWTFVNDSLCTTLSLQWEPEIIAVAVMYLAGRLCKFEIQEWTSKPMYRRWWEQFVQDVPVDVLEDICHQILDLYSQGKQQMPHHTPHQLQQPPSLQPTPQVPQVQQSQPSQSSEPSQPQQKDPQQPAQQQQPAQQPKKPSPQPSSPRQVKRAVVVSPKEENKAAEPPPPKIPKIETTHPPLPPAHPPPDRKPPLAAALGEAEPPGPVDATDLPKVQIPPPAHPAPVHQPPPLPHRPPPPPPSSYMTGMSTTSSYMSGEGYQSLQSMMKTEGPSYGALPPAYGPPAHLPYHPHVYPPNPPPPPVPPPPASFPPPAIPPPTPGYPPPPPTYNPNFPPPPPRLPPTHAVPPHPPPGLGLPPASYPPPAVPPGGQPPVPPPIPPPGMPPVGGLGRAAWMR
Sequence of Cyclin-dependent kinase 13/Cyclin-K (Homo sapiens) (Q14004 whole entry, looked up): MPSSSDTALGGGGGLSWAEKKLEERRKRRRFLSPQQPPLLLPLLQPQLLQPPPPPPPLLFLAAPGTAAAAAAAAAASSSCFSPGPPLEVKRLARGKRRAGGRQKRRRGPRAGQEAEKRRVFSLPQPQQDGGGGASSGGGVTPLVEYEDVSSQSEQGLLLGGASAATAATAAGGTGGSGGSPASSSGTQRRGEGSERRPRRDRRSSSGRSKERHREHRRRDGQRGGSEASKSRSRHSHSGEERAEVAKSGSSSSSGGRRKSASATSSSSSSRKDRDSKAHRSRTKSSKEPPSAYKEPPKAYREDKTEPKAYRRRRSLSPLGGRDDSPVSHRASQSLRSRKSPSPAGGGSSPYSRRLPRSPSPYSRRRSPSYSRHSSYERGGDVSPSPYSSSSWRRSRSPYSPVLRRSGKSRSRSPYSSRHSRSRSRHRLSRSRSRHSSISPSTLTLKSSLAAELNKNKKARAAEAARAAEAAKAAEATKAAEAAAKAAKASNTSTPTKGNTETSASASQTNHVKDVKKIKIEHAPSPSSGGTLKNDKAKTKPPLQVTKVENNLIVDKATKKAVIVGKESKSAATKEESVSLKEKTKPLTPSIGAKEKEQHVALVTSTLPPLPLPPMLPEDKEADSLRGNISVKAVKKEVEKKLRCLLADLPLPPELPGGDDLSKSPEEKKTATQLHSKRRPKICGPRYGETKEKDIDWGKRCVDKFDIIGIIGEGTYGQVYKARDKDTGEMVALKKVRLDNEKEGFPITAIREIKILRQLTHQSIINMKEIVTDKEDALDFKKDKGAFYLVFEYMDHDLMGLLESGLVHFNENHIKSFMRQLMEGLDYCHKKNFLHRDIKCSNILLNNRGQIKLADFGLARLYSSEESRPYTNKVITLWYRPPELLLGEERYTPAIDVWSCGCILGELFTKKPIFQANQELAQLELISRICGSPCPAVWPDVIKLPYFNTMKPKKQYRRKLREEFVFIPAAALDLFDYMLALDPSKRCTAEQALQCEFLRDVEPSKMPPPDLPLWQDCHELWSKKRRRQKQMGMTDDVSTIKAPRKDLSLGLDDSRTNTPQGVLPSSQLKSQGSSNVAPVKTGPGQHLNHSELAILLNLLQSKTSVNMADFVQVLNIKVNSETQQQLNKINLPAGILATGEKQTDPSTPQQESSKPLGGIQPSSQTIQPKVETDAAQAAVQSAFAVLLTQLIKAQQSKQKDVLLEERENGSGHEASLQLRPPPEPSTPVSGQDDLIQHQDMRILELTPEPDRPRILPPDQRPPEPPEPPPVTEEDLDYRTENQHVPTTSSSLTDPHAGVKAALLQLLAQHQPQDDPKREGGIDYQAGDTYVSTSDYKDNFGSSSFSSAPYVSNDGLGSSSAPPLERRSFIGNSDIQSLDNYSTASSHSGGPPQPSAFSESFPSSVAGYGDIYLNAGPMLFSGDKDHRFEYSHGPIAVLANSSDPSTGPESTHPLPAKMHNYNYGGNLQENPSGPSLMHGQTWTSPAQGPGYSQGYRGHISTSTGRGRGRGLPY

[11] = target: CDK6/cyclin D3 (Homo sapiens) (UniProt P30281+Q00534); assay: Inhibition of CDK6/cyclinD3 (unknown origin) at 100 nM preincubated for 20 mins followed by [gamma-33P]ATP addition measured after 120 mins in presence of ATP by Hot-SpotSM kinase assay relative to control; format: protein-complex assay; settings: time 140.0 min
HL-60 [12] = assay: Induction of apoptosis in human HL-60 cells assessed as early apoptotic cells at 2 uM incubated for 48 hrs by annexin V-FITC/PI satining based flow cytometry (reference value: 1.24 %); format: functional
[13] = Half life in Sprague-Dawley rat at 5 mg/kg, iv measured upto 6 hrs by LC/MS-MS analysis; format: ADME, organism-based; settings: in vivo
HL-60 [14] = assay: Induction of apoptosis in human HL-60 cells assessed as early apoptotic cells at 0.2 uM incubated for 48 hrs by annexin V-FITC/PI satining based flow cytometry (reference value: 1.24 %); format: functional
HL-60 [15] = assay: Induction of apoptosis in human HL-60 cells assessed as late apoptotic cells at 0.2 uM incubated for 48 hrs by annexin V-FITC/PI satining based flow cytometry (reference value: 1.33 %); format: functional
U-937 [16] = assay: Induction of apoptosis in human U-937 cells assessed as late apoptotic cells at 2 uM incubated for 48 hrs by annexin V-FITC/PI satining based flow cytometry (reference value: 7.10 %); format: functional
[17] = MRT in Sprague-Dawley rat at 25 mg/kg, po measured upto 8 hrs by LC/MS-MS analysis; format: ADME, organism-based; settings: in vivo
U-937 [18] = assay: Induction of apoptosis in human U-937 cells assessed as necrotic cells at 0.2 uM incubated for 48 hrs by annexin V-FITC/PI satining based flow cytometry (reference value: 1.96 %); format: functional
U-937 [19] = assay: Induction of apoptosis in human U-937 cells assessed as early apoptotic cells at 2 uM incubated for 48 hrs by annexin V-FITC/PI satining based flow cytometry (reference value: 0.945 %); format: functional
HL-60 [20] = assay: Induction of apoptosis in human HL-60 cells assessed as necrotic cells at 0.5 uM incubated for 48 hrs by annexin V-FITC/PI satining based flow cytometry (reference value: 0.00 %); format: functional
[21] = target: Cyclin-dependent kinase 2/cyclin E1 (Homo sapiens) (UniProt P24864+P24941); settings: dose 100.0 nM, time 140.0 min
U-937 [22] = assay: Induction of apoptosis in human U-937 cells assessed as late apoptotic cells at 1 uM incubated for 48 hrs by annexin V-FITC/PI satining based flow cytometry (reference value: 7.10 %); format: functional
HL-60 [23] = assay: Induction of apoptosis in human HL-60 cells assessed as necrotic cells at 2 uM incubated for 48 hrs by annexin V-FITC/PI satining based flow cytometry (reference value: 0.00 %); format: functional
[24] = target: Cyclin-Y/Cyclin-dependent kinase 16 (Homo sapiens) (UniProt Q00536+Q8ND76); settings: dose 100.0 nM, time 140.0 min
[25] = target: CDK1/Cyclin A (Homo sapiens) (UniProt P06493+P20248); assay: Inhibition of CDK1/cyclinA2 (unknown origin) at 100 nM preincubated for 20 mins followed by [gamma-33P]ATP addition measured after 120 mins in presence of ATP by Hot-SpotSM kinase assay relative to control; format: protein-complex assay; settings: time 140.0 min
Sequence of CDK1/Cyclin A (Homo sapiens) (P06493 whole entry, looked up): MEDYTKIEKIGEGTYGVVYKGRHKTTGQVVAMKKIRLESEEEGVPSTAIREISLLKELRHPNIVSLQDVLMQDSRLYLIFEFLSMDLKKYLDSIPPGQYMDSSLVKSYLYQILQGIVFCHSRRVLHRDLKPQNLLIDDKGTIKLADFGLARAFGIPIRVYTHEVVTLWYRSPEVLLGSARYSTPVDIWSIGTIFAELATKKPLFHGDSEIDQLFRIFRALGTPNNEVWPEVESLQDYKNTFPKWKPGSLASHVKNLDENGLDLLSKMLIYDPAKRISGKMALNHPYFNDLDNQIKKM
Sequence of CDK1/Cyclin A (Homo sapiens) (P20248 whole entry, looked up): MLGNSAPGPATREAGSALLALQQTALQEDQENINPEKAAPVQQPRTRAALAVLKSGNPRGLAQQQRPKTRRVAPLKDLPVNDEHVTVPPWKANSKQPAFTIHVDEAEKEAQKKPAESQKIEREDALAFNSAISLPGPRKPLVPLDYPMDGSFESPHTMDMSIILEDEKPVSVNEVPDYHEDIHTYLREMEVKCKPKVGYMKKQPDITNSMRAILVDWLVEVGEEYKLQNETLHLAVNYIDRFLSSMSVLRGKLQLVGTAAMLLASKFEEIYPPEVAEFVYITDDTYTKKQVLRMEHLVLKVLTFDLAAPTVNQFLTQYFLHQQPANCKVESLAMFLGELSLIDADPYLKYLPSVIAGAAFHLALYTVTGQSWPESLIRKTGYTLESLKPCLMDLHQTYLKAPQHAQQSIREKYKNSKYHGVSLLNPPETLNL

U-937 [26] = assay: Induction of apoptosis in human U-937 cells assessed as viable cells at 1 uM incubated for 48 hrs by annexin V-FITC/PI satining based flow cytometry (reference value: 90.0 %); format: functional; settings: read-out: Activity
HL-60 [27] = assay: Induction of apoptosis in human HL-60 cells assessed as necrotic cells at 0.2 uM incubated for 48 hrs by annexin V-FITC/PI satining based flow cytometry (reference value: 0.00 %); format: functional
[28] = target: CDK6/cyclin D1 (Homo sapiens) (UniProt P24385+Q00534); assay: Inhibition of CDK6/cyclinD1 (unknown origin) at 100 nM preincubated for 20 mins followed by [gamma-33P]ATP addition measured after 120 mins in presence of ATP by Hot-SpotSM kinase assay relative to control; format: protein-complex assay; settings: time 140.0 min
[29] = Clearance in Sprague-Dawley rat at 5 mg/kg, iv measured upto 6 hrs by LC/MS-MS analysis; format: ADME, organism-based; settings: in vivo
Histone deacetylase 9 = Histone deacetylase 9 (Homo sapiens, UniProt Q9UKV0); assay: Inhibition of recombinant human HDAC9 using HDAC substrate incubated for 30 mins by fluorescence based assay
Sequence of Histone deacetylase 9 (Q9UKV0 whole entry): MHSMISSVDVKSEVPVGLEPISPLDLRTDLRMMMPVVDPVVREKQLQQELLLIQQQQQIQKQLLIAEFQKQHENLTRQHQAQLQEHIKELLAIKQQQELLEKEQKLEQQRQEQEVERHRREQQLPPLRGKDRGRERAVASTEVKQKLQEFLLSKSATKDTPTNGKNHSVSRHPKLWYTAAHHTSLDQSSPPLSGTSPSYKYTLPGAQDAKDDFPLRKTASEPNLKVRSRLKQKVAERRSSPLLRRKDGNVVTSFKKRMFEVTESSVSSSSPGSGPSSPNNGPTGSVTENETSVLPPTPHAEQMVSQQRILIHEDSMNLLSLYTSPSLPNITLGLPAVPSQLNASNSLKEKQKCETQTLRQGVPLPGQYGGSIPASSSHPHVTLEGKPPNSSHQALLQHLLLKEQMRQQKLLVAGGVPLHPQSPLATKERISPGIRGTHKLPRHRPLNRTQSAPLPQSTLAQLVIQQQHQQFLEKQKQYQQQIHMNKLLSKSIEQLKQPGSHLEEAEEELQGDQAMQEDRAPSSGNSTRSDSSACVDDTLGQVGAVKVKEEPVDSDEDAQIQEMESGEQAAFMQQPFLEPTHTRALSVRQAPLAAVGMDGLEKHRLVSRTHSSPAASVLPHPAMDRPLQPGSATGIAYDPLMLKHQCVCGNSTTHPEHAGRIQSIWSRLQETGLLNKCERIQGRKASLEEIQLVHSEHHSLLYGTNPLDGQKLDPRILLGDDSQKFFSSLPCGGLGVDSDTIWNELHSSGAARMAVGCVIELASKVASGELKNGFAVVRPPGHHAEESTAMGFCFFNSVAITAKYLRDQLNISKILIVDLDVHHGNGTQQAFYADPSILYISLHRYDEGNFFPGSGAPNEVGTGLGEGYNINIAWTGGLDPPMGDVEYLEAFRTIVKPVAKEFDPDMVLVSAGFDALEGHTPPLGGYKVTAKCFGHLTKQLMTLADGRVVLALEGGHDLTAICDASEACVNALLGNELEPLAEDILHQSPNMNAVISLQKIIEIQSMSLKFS

U-937 [30] = assay: Induction of apoptosis in human U-937 cells assessed as early apoptotic cells at 0.2 uM incubated for 48 hrs by annexin V-FITC/PI satining based flow cytometry (reference value: 0.945 %); format: functional

SMILES: Nc1cc(F)ccc1NC(=O)c1ccc(CNC(=O)/C=C/c2cccnc2)cc1 [TUCIDINOSTAT]
viability at 1.2 µM (HL-60 [1]): 84.7%
viability at 5 µM (HL-60 [2]): 18.1%
Activity (U-937 [3]): 5.59%
Activity (HL-60 [4]): 0.07%
Activity (U-937 [5]): 6.77%
Activity (U-937 [6]): 5.7%
Activity (HL-60 [7]): 0.04%
Activity (U-937 [8]): 2.74%

IC50 (Histone deacetylase 5): > 1 µM
inhibition [10]: 100%
inhibition [11]: 21.4%
t1/2 [13]: 6.6 min
MRT [17]: 1.27 h
inhibition [21]: 57.5%
inhibition [24]: 35.4%
inhibition [25]: 31%
inhibition [28]: 58.2%
clearance [29]: 5.31 L/h/kg
IC50 (Histone deacetylase 9): > 1 µM
SMILES: Nc1ccccc1NC(=O)c1ccc(NC(=O)c2n[nH]cc2NC(=O)c2c(Cl)cccc2Cl)cc1
Activity (HL-60 [9]): 3.16%
Activity (HL-60 [12]): 35.4%
Activity (HL-60 [14]): 1.61%
Activity (HL-60 [15]): 1.97%
Activity (U-937 [16]): 88.7%
Activity (U-937 [18]): 2.9%
Activity (U-937 [19]): 2.14%
Activity (HL-60 [20]): 0.01%
Activity (U-937 [22]): 34.1%
Activity (HL-60 [23]): 4.87%
viability at 1 µM (U-937 [26]): 48.9%
Activity (HL-60 [27]): 0.02%
Activity (U-937 [30]): 1.56%
